For 88 molecules, melting point results are on record in a melting point compilation (Tetko et al.; mined from patent text by program, amines drawn as free bases though some values may be those of a salt).

Structures are written as SMILES. Some results are limits rather than exact numbers.

As usually defined, the melting point is the temperature, or range, at which the solid turns liquid. For `Cc1nc(N2CCCC(Cc3ccc(F)cc3)C2=O)sc1C(=O)NCc1cccc(F)c1` (stereo not drawn), the melting point lay in the range of 173 to 175 °C. As for `Cn1ncnc1COc1nn2c(-c3ccccc3F)nnc2cc1C1CCCO1` (stereo not drawn), the figure is 136 to 139 °C; as for `C=CCC(=O)c1cnn(-c2ccccn2)c1S(N)(=O)=O`, 140 to 142 °C. As for `COc1cc2ccccc2cc1NC(=O)N1CCN(c2cc(F)cc(F)c2)CC1`, the figure is 160 to 161 °C; as for `Cc1cc(=O)n(-c2ccccc2)c2[nH]n(-c3ccccc3)c(=O)c12`, 145 to 147 °C; as for `COC(=O)CNC(=O)Nc1cc(F)ccc1[N+](=O)[O-]`, 133 to 135 °C. As for `CN(O)C(=N)c1nn(-c2c(Cl)cc(C(F)(F)F)cc2Cl)c(N)c1S(=O)C(F)(F)F` (stereo not drawn), the figure is 187 to 191 °C.

Regarding `CCCCC(=O)Nc1ccc(-c2ccc(-c3ccccc3Cl)n2Cc2cccc(N)n2)cc1`, the melting point lay within 145 to 150 °C.

The molecule `CNc1nc(CSC)c(-c2ccncc2)s1` returned a melting point of 135 to 138 °C. To `CCCCC(OC(=O)Nc1ccc(-c2ncn(-c3ccc(OC(F)(F)F)cc3)n2)cc1)C(=O)OCC` (stereo not drawn) belongs 135 to 139 °C; to `O=C(c1ccccc1)N(c1ccccc1)c1ccc(O)cc1`, 257 to 260 °C; to `CC(C)COc1ccc2c(c1)CCC1C2=CCC2(C)C(=O)CCC12` (stereo not drawn), 107 to 108 °C. The molecule `COc1ccc(CN(C)C(=O)CCCc2ccc([N+](=O)[O-])cc2)cc1OC` gave a melting point of 90 °C. Regarding `N#Cc1ccc(C(=O)NCCC(=O)NC(CC(=O)OCc2ccccc2)C(=O)NC(Cc2ccccc2)C(=O)OCc2ccccc2)nc1` (stereo not drawn), the melting point was 157 to 158 °C. As for `Cc1sc(CCc2ccc(C=CC=O)cc2)nc1-c1ccccc1`, the figure is 94 to 95 °C; as for `COc1c(C=O)c2cc(Cl)c(Cl)cc2n1C1OC(CO)C(O)C1O` (stereo not drawn), 198 to 199 °C. For the molecule `O=C1NC(Cc2ccc(OCc3ccccc3)cn2)C(=O)NC1Cc1ccc(Cl)cc1` (stereo not drawn), the melting point lay within 227 to 229 °C. To `COc1ccccc1C(=O)c1cccnn1` belongs 125 to 126 °C. To `CS(=O)(=O)c1ccc(C2=C(c3ccc(F)cc3)C(=O)C2(Cl)Cl)cc1` belongs 116 to 118 °C.

For `CCOC(=O)c1c[nH]c(Cc2ccc(OC)cc2)n1`, the melting point lay in the range of 119 to 121 °C.

For `CCOC(=O)COc1ccc(N)c(C)c1`, the melting point fell in the range of 198 to 200 °C.

Turning to `CCOC(=O)[C@H]1O[C@@H]1C(=O)N[C@@H](COCC(C)C)CC(C)C`, the melting point lay in the range of 60 to 63 °C.

As to `CCc1nc2cc(/C=C/C(=O)NO)ccc2c(=O)n1CCCc1ccccc1`, the melting point lay within 189 to 191 °C. The molecule `Cc1nn(C)c(C)c1C(=O)Nc1ccc(C(C(F)(F)F)C(F)(F)F)c(CC(C)C)c1` showed a melting point of 148 to 151 °C.

`C=C(C)c1nnc(-c2cc3c([nH]c2=O)CCN(Cc2ccccc2)C3)o1` gave a melting point of 221 to 223 °C. As for `COc1cc(OC)c(C(=O)CCCCCl)cc1NC(=O)Nc1ccc(C(F)(F)F)cc1`, the figure is 154 to 156 °C; as for `O=[N+]([O-])c1c(Cl)nc(C2CC2)nc1Cl`, 50 to 52 °C. To `O=C1NC(=O)C(CCCc2ccc(O)cc2)O1` (stereo not drawn) belongs 132 to 133 °C; to `CC(=O)Nc1ccc2c(c1)CC1CC(=O)NN=C21` (single isomer, unassigned; (-)), 307 °C. To `CCCN1C(=O)N2C[C@@H](Cc3ccccc3)N=C2c2c1nc(CCl)n2Cc1ccccc1` belongs 112 to 113 °C; to `Brc1ccc2c(c1)N=C(N1CCN(c3ccccc3)CC1)c1cccc3c1N2CC3`, 171 to 173 °C. Molecule `COc1cc(OCC(=O)N[C@@H]2CCN(Cc3ccccc3)C2)ccc1C=NNC(=O)c1ccc(O)c(N)c1` showed a melting point of 157 to 160 °C. For the molecule `CC(C)(C)OC(=O)N[C@H](C(=O)N1CCC[C@H]1C(=O)OCc1ccccc1)C(C)(C)C`, the melting point is 174 °C.

In turn, `Cc1cc(-c2nnc3cc(C(C)(C)C)c(OCc4cn(C)nn4)nn23)no1` showed a melting point of 219 to 221 °C. To `O=S1(=O)N=CN(C2CCCCC2)c2ccc(Cl)cc21` belongs 209 to 211 °C; to `O=C(CCS)NCCS`, 40 °C. Regarding `CCOC(=O)c1cc(=O)c(Sc2ccc(OC)cc2)co1`, the melting point was in the range of 90 to 92 °C. With `CCCc1c(OCCCCCOc2ccccc2CCCC(=O)O)ccc2c1OCCC2=O`, the melting point is 116 to 118 °C. In turn, `CC(C)c1cccc(C(C)C)c1NC(=O)CC(=O)C1(c2ccccc2)CCCC1` had a melting point of 145 to 147 °C. To `CC(C)OP(=O)(/C=C/C(CO)Cn1cnc2c(N)ncnc21)OC(C)C` (stereo not drawn) belongs 130 °C. As for `O=[N+]([O-])c1cc(F)ccc1N1CCNCC1`, the figure is 85 to 87 °C; as for `Cc1cc(F)cc(-c2ccc3c(c2)C2(C=N3)CCCCC2)c1`, 180 to 182 °C; as for `O=c1ccc(S(=O)(=O)c2cc3cc(Cl)cc(Cl)c3[nH]2)n[nH]1`, greater than 250 °C. To `Cc1ccc(S(=O)(=O)Cc2c(C(=O)O)nn(-c3ccccc3)c2O)cc1` belongs 228 °C. For `Nc1n[nH]c2cc(Br)ccc12`, the melting point fell in the range of 222 to 225 °C. As for `COc1ccc(-c2cc3oc(=O)c4ccccc4c3nn2)cc1`, the figure is 270 °C. To `CC[C@H]1[C@@H](O)C(F)(F)C(=O)N1c1ccc(C#N)c(OC)c1` belongs 161 to 164 °C. As for `O=C(O)CCCCCCCCCCc1ccc(Br)cc1`, the figure is 91 °C; as for `CC(=O)O[C@H]1CS[C@H](C(=O)O)O1` (relative stereo), 111 °C; as for `CCn1ncc2c3ncn(Cc4ccccc4)c(=O)c3cnc21`, 198 to 200 °C.

In turn, `COC(=O)c1ccc(-c2nc(-c3ccc(OC(F)F)cc3)cs2)cc1` showed a melting point of 146 to 148 °C.

In turn, `[N-]=[N+]=N[C@H]1C[C@H](C(=O)O)C1` gave a melting point of 39 to 41 °C. Molecule `COc1ccc(Nc2ccc(OCc3ccccc3)cc2)c(C(C)=O)c1` displayed a melting point of 80 to 81.5 °C. Molecule `CC(=O)N1OCC(=O)N(CCl)C1c1ccccc1` (stereo not drawn) registered a melting point of 171 to 172 °C.

`CCCCc1nn2c(C)c(-c3ccccc3)nc2n1Cc1ccc(-c2ccccc2-c2nnn[nH]2)cc1` displayed a melting point of 207 to 208 °C.

In the case of `O=C1CCN(c2cc(Cl)cc3cccnc23)CC1`, the melting point lay within 223 to 225 °C. On to `CCOC(=O)C1=C(C)NC(C)=C(C(=O)OCC)C1c1ccc(Br)cc1F`, for which the melting point fell in the range of 154 to 155 °C. As for `COc1ccc(-n2c(=O)cc(C(F)(F)F)n(C)c2=O)c2c1C(=O)C(C)(C)O2`, the figure is 222 to 224 °C; as for `CC(C)Oc1cccc(N(C)C(=O)N(C)Cc2c(-c3ccccc3)c3cc(Cl)ccc3c(=O)n2C)c1`, 143 to 144 °C. As for `Fc1cc(F)c(-c2c(Cl)nc3nccn3c2N2CCCCCC2)c(F)c1`, the figure is 106 to 108 °C; as for `CCOC(=O)C1=C(COCCO)Nc2ccnc(OC(C)C)c2C1c1ccccc1C(F)(F)F` (stereo not drawn), 109 to 112 °C; as for `ClCc1coc(-c2sccc2Cl)n1`, 84 to 85 °C. As for `COC(=O)c1nc2n(n1)-c1ccccc1N(c1cccc(C)c1C)C2`, the figure is 170 to 172 °C; as for `CCCCCc1nc2c(Nc3ccc(Cl)c(Cl)c3)nc3ccccc3c2[nH]1`, 195 to 200 °C. Molecule `[N-]=[N+]=C(C(=O)CCc1ccc(S(=O)(=O)Cl)cc1)C(=O)CCc1ccc(S(=O)(=O)Cl)cc1` yielded a melting point of 121 to 122 °C.

As for `O=C(O)CC1CCCc2c1[nH]c1ccc(F)cc21` (stereo not drawn), the melting point lay within 124 to 126 °C. For `CCCc1nc(SC(F)F)c(C(=O)O)n1Cc1ccc(-c2ccccc2S(=O)(=O)NC(=O)NCc2ccccc2Cl)cc1`, the melting point was determined as 134 °C. To `COc1ccc(C)cc1NC(=O)Nc1ccc2c(c1)CCN(C(=O)Oc1ccc(C(=O)O)cc1Cl)C2` belongs 196 to 198 °C.

For `CCCc1c(OCCCOc2ccc(Cl)c(Cl)c2)ccc2c1OC(CCC(=O)O)(CCC(=O)O)CC2=O`, the melting point is 136 to 137 °C. To `COC1=C(OC)C(=O)C2=C(CC(CCCCOc3ccc(C(=O)N4CCOCC4)cc3)C2)C1=O` belongs 128 to 131 °C; to `CN(C)c1ccccc1CC(=O)N1C[C@@H]2SCCC(c3ccccc3)(c3ccccc3)[C@@H]2C1` (racemic), 163 °C; to `O=C(O)c1ccc2nc(-n3nc4c(c3O)-c3ccccc3CC4)sc2c1`, greater than 280 °C.

For the molecule `COc1ccc2nc(-c3csc4ccccc34)[nH]c(=O)c2c1`, the melting point was in the range of 289 to 290 °C. As for `CSCCC(=O)NCc1cccc(-c2nc(=O)c3ccccc3s2)n1`, the figure is 192 to 193 °C; as for `COc1ccccc1-c1ccc(C#N)c(=O)[nH]1`, 236 to 238 °C. To `CNC(=O)c1cc2c(OC[C@@H](O)CN3CCC(c4ccc5ccccc5c4)CC3)cccc2n1C` belongs 180 to 183 °C; to `C#CCOc1cc(-n2nc(C)c(Cl)c2C)c(Cl)cc1Cl`, 156 to 158 °C; to `N[C@H]1Cc2ccccc2[C@@H]1O`, 104 to 106 °C.

On to `COc1ccc(CC(C)=O)cc1S(N)(=O)=O`, for which the melting point fell in the range of 194 to 196 °C. Take `COc1ccc(-n2c(=O)n(O)c(=O)c3cc(F)c(N4CCCC4)cc32)cc1`: the melting point lay within 224 to 226 °C.

`COc1ccc2c(c1)NCC(c1ccccc1)O2` (stereo not drawn) displayed a melting point of 95 to 100 °C. To `O=c1[nH]c2ccccc2n1CCN1CCN(c2ccc(O)c(C(F)(F)F)c2)CC1` belongs greater than 250 °C. To `CCOC(=O)C1=C(C)Nc2nc(N3CCOCC3)nc(N3CCOCC3)c2C1c1cccs1` (stereo not drawn) belongs 205 °C; to `c1ccc(Cc2cc3ccncc3[nH]2)cc1`, 142 to 146 °C. To `COc1ccc(C(CCc2ccccc2)C(=O)O)cc1` (stereo not drawn) belongs 92 to 97 °C; to `CCC(O)(c1ccc(OCc2cccc(C)n2)cc1)c1ccccc1OC` (stereo not drawn), 110 to 111 °C.

Turning to `CN(C(=O)OCc1ccccc1)C1CCN(CC2(C)Cn3cc([N+](=O)[O-])nc3O2)CC1` (stereo not drawn), the melting point is 139 °C. To `CC(OCc1cc2nc(Cl)ccc2n1S(=O)(=O)c1ccc2ncsc2c1)C(=O)O` (stereo not drawn) belongs 179 °C.
